molecular target: HDM2 protein (Homo sapiens, UniProt Q00987); assay: fluorescence polarization screening assay (FP IC50); type: binding; conditions: class symbols
Experimental: The compounds were evaluated to determine activity at the HDM2 protein by known methods such as the fluorescence polarization screening assay that measures the inhibitory concentration that achieves 50% of maximal activity (FP IC50) and the dissociation constant for inhibitor binding (FP Ki). [Zhang et al., J. Analytical Biochemistry 331: 138-146 (2004)].

HDM2 protein, sequence (Q00987 whole entry): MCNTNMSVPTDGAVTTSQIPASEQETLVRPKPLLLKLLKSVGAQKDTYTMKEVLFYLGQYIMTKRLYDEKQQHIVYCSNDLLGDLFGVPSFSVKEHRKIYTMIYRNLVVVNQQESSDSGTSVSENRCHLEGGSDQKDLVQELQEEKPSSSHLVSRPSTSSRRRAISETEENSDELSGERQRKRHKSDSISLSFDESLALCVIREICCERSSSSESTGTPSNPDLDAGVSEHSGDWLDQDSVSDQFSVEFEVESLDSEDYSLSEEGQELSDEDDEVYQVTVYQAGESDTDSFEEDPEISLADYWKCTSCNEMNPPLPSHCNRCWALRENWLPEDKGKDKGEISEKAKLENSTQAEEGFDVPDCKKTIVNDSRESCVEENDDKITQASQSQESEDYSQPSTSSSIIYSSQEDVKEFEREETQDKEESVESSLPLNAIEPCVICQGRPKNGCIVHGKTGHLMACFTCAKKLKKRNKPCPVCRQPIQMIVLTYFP

SMILES | IC50
CCC[C@H]1N(C(=O)c2ncccc2C(F)(F)F)CCC[C@@]1(Oc1csc(C(F)(F)F)c1)C(=O)N1CCc2cc(F)ccc2C1 [Compound A48, 6-fluoro-2-{[(2R,3S)-2-propyl-1-{[3-(trifluoromethyl)pyridin-2-yl]carbonyl}-3-{[5-(trifluoromethyl)thiophen-3-yl]oxy}piperidin-3-yl]carbonyl}-1,2,3,4-tetrahydroisoquinoline] | 0.101 to 20 µM
CCC[C@H]1N(C(=O)c2ncccc2C(F)(F)F)CCC[C@@]1(Oc1csc(C(F)(F)F)c1)C(=O)N1CCc2cc(Cl)ccc2C1 [Compound A49, 6-chloro-2-{[(2R,3S)-2-propyl-1-{[3-(trifluoromethyl)pyridin-2-yl]carbonyl}-3-{[5-(trifluoromethyl)thiophen-3-yl]oxy}piperidin-3-yl]carbonyl}-1,2,3,4-tetrahydroisoquinoline] | 0.001 to 0.1 µM
CCC[C@H]1N(C(=O)c2ncccc2C(F)(F)F)CCC[C@@]1(Oc1csc(C(F)(F)F)c1)C(=O)N1CCc2cc(Br)ccc2C1 [Compound A50, 6-bromo-2-{[(2R,3S)-2-propyl-1-{[3-(trifluoromethyl)pyridin-2-yl]carbonyl}-3-{[5-(trifluoromethyl)thiophen-3-yl]oxy}piperidin-3-yl]carbonyl}-1,2,3,4-tetrahydroisoquinoline] | 0.001 to 0.1 µM
CCC[C@H]1N(C(=O)c2ncccc2C(F)(F)F)CCC[C@@]1(Oc1csc(C(F)(F)F)c1)C(=O)N1CCc2cc(F)ccc2C1CCCO (stereo partly drawn) [Compound A51, 3-(6-fluoro-2-{[(2R,3S)-2-propyl-1-{[3-(trifluoromethyl)pyridin-2-yl]carbonyl}-3-{[5-(trifluoromethyl)thiophen-3-yl]oxy}piperidin-3-yl]carbonyl}-1,2,3,4-tetrahydroisoquinolin-1-yl)propan-1-ol] | 0.001 to 0.1 µM
CCC[C@H]1N(C(=O)c2ncccc2C(F)(F)F)CCC[C@@]1(Oc1csc(C(F)(F)F)c1)C(=O)N1CCc2cc(F)ccc2C1CC(=O)O (stereo partly drawn) [Compound A52, (6-fluoro-2-{[(2R,3S)-2-propyl-1-{[3-(trifluoromethyl)pyridin-2-yl]carbonyl}-3-{[5-(trifluoromethyl)thiophen-3-yl]oxy}piperidin-3-yl]carbonyl}-1,2,3,4-. tetrahydroisoquinolin-1-yl)acetic acid] | 0.001 to 0.1 µM
CCC[C@H]1N(C(=O)c2ncccc2C(F)(F)F)CCC[C@@]1(Oc1csc(C(F)(F)F)c1)C(=O)N1CCc2cc(Cl)ccc2C1CC(=O)O (stereo partly drawn) [Compound A53, (6-chloro-2-{[(2R,3S)-2-propyl-1-{[3-(trifluoromethyl)pyridin-2-yl]carbonyl}-3-{[5-(trifluoromethyl)thiophen-3-yl]oxy}piperidin-3-yl]carbonyl}-1,2,3,4-. tetrahydroisoquinolin-1-yl)acetic acid] | 0.001 to 0.1 µM
CCC[C@H]1N(C(=O)c2ncccc2C(F)(F)F)CCC[C@@]1(Oc1csc(C(F)(F)F)c1)C(=O)N1CCc2cc(F)ccc2C1CCCO (stereo partly drawn) [Compound A54, 3-(6-fludro-2-{[(2R,3S)-2-propyl-1-{[3-(trifluoromethyl)pyridin-2-yl]carbonyl}-3-{[5-(trifluoromethyl)thiophen-3-yl]oxy}piperidin-3-yl]carbonyl}-1,2,3,4-tetrahydroisoquinolin-1-yl)propan-1-ol] | 0.101 to 20 µM
CCC[C@H]1N(C(=O)c2ncccc2C(F)(F)F)CCC[C@@]1(Oc1csc(C(F)(F)F)c1)C(=O)N1CCc2cc(Cl)ccc2C1CC(=O)O (stereo partly drawn) [Compound A55, (6-chloro-2-{[(2R,3S)-2-propyl-1-{[3-(trifluoromethyl)pyridin-2-yl]carbonyl}-3-{[5-(trifluoromethyl)thiophen-3-yl]oxy}piperidin-3-yl]carbonyl}-1,2,3,4-. tetrahydroisoquinolin-1-yl)acetic acid] | 0.001 to 0.1 µM
CCC[C@H]1N(C(=O)c2ncccc2C(F)(F)F)CCC[C@@]1(Oc1csc(C(F)(F)F)c1)C(=O)N1CCc2cc(F)ccc2C1CC(=O)O (stereo partly drawn) [Compound A56, (6-fluoro-2-{[(2R,3S)-2-propyl-1-{[3-(trifluoromethyl)pyridin-2-yl]carbonyl}-3-{[5-(trifluoromethyl)thiophen-3-yl]oxy}piperidin-3-yl]carbonyl}-1,2,3,4-. tetrahydroisoquinolin-1-yl)acetic acid] | 0.001 to 0.1 µM
CCC[C@H]1N(C(=O)c2ncccc2C(F)(F)F)CCC[C@@]1(Oc1csc(C(F)(F)F)c1)C(=O)N1CCc2cc(Br)ccc2C1CCC(=O)O (stereo partly drawn) [Compound A57, 3-(6-bromo-2-{[(2R,3S)-2-propyl-1-{[3-(trifluoromethyl)pyridin-2-yl]carbonyl}-3-{[5-(trifluoromethyl)thiophen-3-yl]oxy}piperidin-3-yl]carbonyl}-1,2,3,4-tetrahydroisoquinolin-1-yl)propanoic acid] | 0.001 to 0.1 µM
CCC[C@H]1N(C(=O)c2ncccc2C(F)(F)F)CCC[C@@]1(Oc1csc(C(F)(F)F)c1)C(=O)N1CCc2cc(Br)ccc2C1CCC(=O)O (stereo partly drawn) [Compound A58, 3-(6-bromo-2-{[(2R,3S)-2-propyl-1-{[3-(trifluoromethyl)pyridin-2-yl]carbonyl}-3-{[5-(trifluoromethyl)thiophen-3-yl]oxy}piperidin-3-yl]carbonyl}-1,2,3,4-tetrahydroisoquinolin-1-yl)propanoic acid] | 0.001 to 0.1 µM
CCC[C@H]1N(C(=O)c2ncccc2C(F)(F)F)CCC[C@@]1(Oc1csc(C(F)(F)F)c1)C(=O)N1CCc2cc(F)ccc2C1CCC(=O)NCc1nn[nH]n1 (stereo partly drawn) [Compound A59, 3-(6-fluoro-2-{[(2R,3S)-2-propyl-1-{[3-(trifluoromethyl)pyridin-2-yl]carbonyl}-3-{[5-(trifluoromethyl)thiophen-3-yl]oxy}piperidin-3-yl]carbonyl}-1,2,3,4-tetrahydroisoquinolin-1-yl)-N-(2H-tetrazol-5-ylmethyl)propanamide] | 0.001 to 0.1 µM
CCC[C@H]1N(C(=O)c2ncccc2C(F)(F)F)CCC[C@@]1(Oc1csc(C(F)(F)F)c1)C(=O)N1CCc2cc(F)ccc2C1CCC(=O)NCc1nn[nH]n1 (stereo partly drawn) [Compound A60, 3-(6-fluoro-2-{[(2R,3S)-2-propyl-1-{[3-(trifluoromethyl)pyridin-2-yl]carbonyl}-3-{[5-(trifluoromethyl)thiophen-3-yl]oxy}piperidin-3-yl]carbonyl}-1,2,3,4-tetrahydroisoquinolin-1-yl)-N-(2H-tetrazol-5-ylmethyl)propanamide] | 0.001 to 0.1 µM
CCC[C@H]1N(C(=O)c2ncccc2C(F)(F)F)CCC[C@@]1(Oc1csc(C(F)(F)F)c1)C(=O)N1CCc2cc(Cl)ccc2C1CCC(=O)NS(C)(=O)=O (stereo partly drawn) [Compound A61, 3-(6-chloro-2-{[(2R,3S)-2-propyl-1-{[3-(trifluoromethyl)pyridin-2-yl]carbonyl}-3-{[5-(trifluoromethyl)thiophen-3-yl]oxy}piperidin-3-yl]carbonyl}-1,2,3,4-tetrahydroisoquinolin-1-yl)-N-(methylsulfonyl) propanamide] | 0.001 to 0.1 µM
CCC[C@H]1N(C(=O)c2ncccc2C(F)(F)F)CCC[C@@]1(Oc1csc(C(F)(F)F)c1)C(=O)N1CCc2cc(-c3ccccc3)ccc2C1 [Compound A62, 6-phenyl-2-{[(2R,3S)-2-propyl-1-{[3-(trifluoromethyl)pyridin-2-yl]carbonyl}-3-{[5-(trifluoromethyl)thiophen-3-yl]oxy}piperidin-3-yl]carbonyl}-1,2,3,4-tetrahydroisoquinoline] | 0.101 to 20 µM
CCC[C@H]1N(C(=O)c2ncccc2C(F)(F)F)CCC[C@@]1(Oc1csc(C(F)(F)F)c1)C(=O)N1CCc2cc(Cl)ccc2C1CCC(=O)NS(C)(=O)=O (stereo partly drawn) [Compound A63, 3-(6-chloro-2-{[(2R,3S)-2-propyl-1-{[3-(trifluoromethyl)pyridin-2-yl]carbonyl}-3-{[5-(trifluoromethyl)thiophen-3-yl]oxy}piperidin-3-yl]carbonyl}-1,2,3,4-tetrahydroisoquinolin-1-yl)-N-(methylsulfonyl) propanamide] | 0.001 to 0.1 µM
CCC[C@H]1N(C(=O)c2ncccc2C(F)(F)F)CCC[C@@]1(Oc1csc(C(F)(F)F)c1)C(=O)N1CCc2cc(Cl)ccc2C1CC(C)(C)C(=O)O (stereo partly drawn) [Compound A64, 3-(6-chloro-2-{[(2R,3S)-2-propyl-1-{[3-(trifluoromethyl)pyridin-2-yl]carbonyl}-3-{[5-(trifluoromethyl)thiophen-3-yl]oxy}piperidin-3-yl]carbonyl}-1,2,3,4-tetrahydroisoquinolin-1-yl)-2,2-dimethylpropanoic acid] | 0.001 to 0.1 µM
CCC[C@H]1N(C(=O)c2ncccc2C(F)(F)F)CCC[C@@]1(Oc1csc(C(F)(F)F)c1)C(=O)N1CCc2cc(Cl)ccc2C1CC(C)(C)C(=O)O (stereo partly drawn) [Compound A65, 3-(6-chloro-2-{[(2R,3S)-2-propyl-1-{[3-(trifluoromethyl)pyridin-2-yl]carbonyl}-3-{[5-(trifluoromethyl)thiophen-3-yl]oxy}piperidin-3-yl]carbonyl}-1,2,3,4-tetrahydroisoquinolin-1-yl)-2,2-dimethylpropanoic acid] | 0.001 to 0.1 µM
CCC[C@H]1N(C(=O)c2ncccc2C(F)(F)F)CCC[C@@]1(Oc1csc(C(F)(F)F)c1)C(=O)N1CCc2cc(-c3ccsc3)ccc2C1 [Compound A66, 2-{[(2R,3S)-2-propyl-1-{[3-(trifluoromethyl)pyridin-2-yl]carbonyl}-3-{[5-(trifluoromethyl)thiophen-3-yl]oxy}piperidin-3-yl]carbonyl}-6-thiophen-3-yl-1,2,3,4-tetrahydroisoquinoline] | 0.101 to 20 µM
CCC[C@H]1N(C(=O)c2ncccc2C(F)(F)F)CCC[C@@]1(Oc1csc(C(F)(F)F)c1)C(=O)N1CCc2cc(Cl)ccc2C1CCC(=O)NCc1nn[nH]n1 (stereo partly drawn) [Compound A67, 3-(6-chloro-2-{[(2R,3S)-2-propyl-1-{[3-(trifluoromethyl)pyridin-2-yl]carbonyl}-3-{[5-(trifluoromethyl)thiophen-3-yl]oxy}piperidin-3-yl]carbonyl}-1,2,3,4-tetrahydroisoquinolin-1-yl)-N-(2H-tetrazol-5-ylmethyl)propanamide] | 0.001 to 0.1 µM

Source: patent US9062071B2, “Substituted piperidines as HDM2 inhibitors” (Merck Sharp & Dohme Corp, priority 2011, dated 2015)
